The record followed here is patent US20240398784A1, “C-LINKED ISOQUINOLINE AMIDES AS LRRK2 INHIBITORS, PHARMACEUTICAL COMPOSITIONS, AND USES THEREOF” (Merck Sharp & Dohme LLC, priority 2021, published 2024).

The structures appear in SMILES notation.

Sequence of LRRK2 G2019S (Q5S007 whole entry G2019S): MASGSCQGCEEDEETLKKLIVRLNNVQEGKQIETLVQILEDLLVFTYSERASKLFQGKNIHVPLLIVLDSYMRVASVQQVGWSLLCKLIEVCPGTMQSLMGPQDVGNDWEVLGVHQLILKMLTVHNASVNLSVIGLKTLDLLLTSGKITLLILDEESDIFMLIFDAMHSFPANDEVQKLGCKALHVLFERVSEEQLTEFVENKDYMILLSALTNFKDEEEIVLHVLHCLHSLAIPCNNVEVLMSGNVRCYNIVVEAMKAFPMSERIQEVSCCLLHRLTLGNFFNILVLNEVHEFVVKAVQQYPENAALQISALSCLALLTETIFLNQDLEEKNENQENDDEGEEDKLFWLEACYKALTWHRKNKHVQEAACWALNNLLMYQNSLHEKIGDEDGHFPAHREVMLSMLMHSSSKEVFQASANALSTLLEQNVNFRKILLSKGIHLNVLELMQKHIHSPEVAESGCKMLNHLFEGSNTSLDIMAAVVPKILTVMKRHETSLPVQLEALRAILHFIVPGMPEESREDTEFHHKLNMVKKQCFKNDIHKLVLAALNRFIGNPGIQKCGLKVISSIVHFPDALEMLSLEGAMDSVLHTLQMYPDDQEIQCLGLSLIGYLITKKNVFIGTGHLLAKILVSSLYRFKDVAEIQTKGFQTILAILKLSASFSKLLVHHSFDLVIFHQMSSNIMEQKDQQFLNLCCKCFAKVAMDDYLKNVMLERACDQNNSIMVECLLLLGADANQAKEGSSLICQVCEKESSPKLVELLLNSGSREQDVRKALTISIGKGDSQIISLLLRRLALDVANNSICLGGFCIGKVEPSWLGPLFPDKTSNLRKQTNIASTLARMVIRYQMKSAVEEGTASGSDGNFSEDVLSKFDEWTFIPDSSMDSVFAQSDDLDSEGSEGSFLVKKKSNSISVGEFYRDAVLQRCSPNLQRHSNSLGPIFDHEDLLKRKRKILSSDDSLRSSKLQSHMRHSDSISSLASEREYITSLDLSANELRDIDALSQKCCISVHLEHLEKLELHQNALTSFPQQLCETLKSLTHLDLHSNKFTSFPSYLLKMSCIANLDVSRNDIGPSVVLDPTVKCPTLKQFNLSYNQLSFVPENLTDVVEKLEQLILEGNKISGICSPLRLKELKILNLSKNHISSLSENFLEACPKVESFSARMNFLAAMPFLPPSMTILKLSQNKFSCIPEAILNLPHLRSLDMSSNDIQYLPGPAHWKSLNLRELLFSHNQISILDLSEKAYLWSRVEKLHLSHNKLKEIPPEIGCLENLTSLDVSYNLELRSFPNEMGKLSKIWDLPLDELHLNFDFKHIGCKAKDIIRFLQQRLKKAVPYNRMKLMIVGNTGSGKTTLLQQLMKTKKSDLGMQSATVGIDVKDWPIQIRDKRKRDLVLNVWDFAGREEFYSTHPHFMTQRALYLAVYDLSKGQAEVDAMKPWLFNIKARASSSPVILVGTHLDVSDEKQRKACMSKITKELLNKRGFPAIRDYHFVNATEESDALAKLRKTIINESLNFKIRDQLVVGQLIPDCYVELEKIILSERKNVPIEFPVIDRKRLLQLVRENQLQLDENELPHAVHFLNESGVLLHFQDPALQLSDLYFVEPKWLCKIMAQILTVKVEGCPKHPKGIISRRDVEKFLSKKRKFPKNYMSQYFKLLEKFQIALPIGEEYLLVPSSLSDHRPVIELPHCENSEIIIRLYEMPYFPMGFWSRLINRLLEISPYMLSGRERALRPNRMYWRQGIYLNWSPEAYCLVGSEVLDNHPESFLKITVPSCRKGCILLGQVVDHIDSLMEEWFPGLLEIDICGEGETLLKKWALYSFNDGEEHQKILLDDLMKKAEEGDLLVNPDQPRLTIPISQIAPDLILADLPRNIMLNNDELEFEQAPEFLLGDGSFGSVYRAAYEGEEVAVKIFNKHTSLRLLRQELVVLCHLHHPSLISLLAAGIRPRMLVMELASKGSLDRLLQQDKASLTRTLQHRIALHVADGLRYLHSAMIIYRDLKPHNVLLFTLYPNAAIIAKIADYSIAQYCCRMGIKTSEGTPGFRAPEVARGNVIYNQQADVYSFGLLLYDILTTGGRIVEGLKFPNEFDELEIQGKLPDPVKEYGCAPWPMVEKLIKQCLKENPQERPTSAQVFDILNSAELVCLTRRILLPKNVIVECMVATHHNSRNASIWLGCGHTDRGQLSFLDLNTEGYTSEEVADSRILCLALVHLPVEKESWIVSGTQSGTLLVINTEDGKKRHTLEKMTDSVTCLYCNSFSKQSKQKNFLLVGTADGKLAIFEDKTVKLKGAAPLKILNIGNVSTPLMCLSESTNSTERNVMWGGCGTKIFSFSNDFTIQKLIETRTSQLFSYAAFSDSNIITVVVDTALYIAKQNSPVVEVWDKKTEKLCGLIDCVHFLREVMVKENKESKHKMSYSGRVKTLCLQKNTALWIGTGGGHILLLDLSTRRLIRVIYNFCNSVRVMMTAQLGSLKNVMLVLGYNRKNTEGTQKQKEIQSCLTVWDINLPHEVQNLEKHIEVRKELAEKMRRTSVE

This assay concerns the target LRRK2 G2019S (Homo sapiens, UniProt Q5S007, G2019S). Description: LRRK2 G2019S Km ATP LanthaScreen assay. As to conditions: read-out: LRRK2 pIC50 (converted). In kind it is biochemical. Here is the method:
Unless otherwise noted, all reactions are magnetically stirred. Unless otherwise noted, when diethyl ether is used in the experiments described below, it is Fisher ACS certified material and is stabilized with BHT. Unless otherwise noted, “concentrated” and/or “solvent removed under reduced pressure” means evaporating the solvent from a solution or mixture using a rotary evaporator or vacuum pump. Unless otherwise noted, flash chromatography is carried out on a Teledyne Isco (Lincoln, NE), Analogix (Burlington, WI), or Biotage (Stockholm, SWE) automated chromatography system using a commercially available cartridge as the column. Columns may be purchased from Teledyne Isco, Analogix, Biotage, Varian (Palo Alto, CA), or Supelco (Bellefonte, PA) and are usually filled with silica gel as the stationary phase. Reverse phase prep-HPLC conditions, where used, can be found at the end of each experimental section. Aqueous solutions were concentrated on a Genevac (Ipswich, ENG) or by freeze-drying/lyophilization.
As for `CC1C(C(=O)Nc2cc3cc(C4CCN(C5COC5)CC4)c(Cl)cc3cn2)C1(F)F` (racemic) [Ex-1.6, Rac-N-(7-chloro-6-(1-(oxetan-3-yl)piperidin-4-yl)isoquinolin-3-yl)-2,2-difluoro-3-methylcyclopropane-1-carboxamide], the IC50 was 1.86 nM.
The result for `O=C(Nc1cc2cc(C3CCN(C4COC4)CC3)c(Cl)cc2cn1)C1CC12CCOCC2` (racemic) [Ex-1.9, Rac-N-(7-chloro-6-(1-(oxetan-3-yl)piperidin-4-yl)isoquinolin-3-yl)-6-oxaspiro[2.5]octane-1-carboxamide] reads 2.88 nM; that for `O=C(Nc1cc2cc(C3CCN(C4COC4)CC3)c(Cl)cc2cn1)C1CC12CCC2` (racemic) [Ex-1.14, Rac-N-(7-chloro-6-(1-(oxetan-3-yl)piperidin-4-yl)isoquinolin-3-yl)spiro[2.3]hexane-1-carboxamide], 1.35 nM; that for `CC1CC(C(=O)Nc2cc3cc(C4CCN(C5(C)COC5)CC4)c(Cl)cc3cn2)C1` (racemic) [Ex-1.16, Rac-N-(7-chloro-6-(1-(3-methyloxetan-3-yl)piperidin-4-yl)isoquinolin-3-yl)-3-methylcyclobutane-1-carboxamide], 5.5 nM.
Regarding `CC(C)C1CC(C(=O)Nc2cc3cc(C4CCN(C5(C)COCC5O)CC4)c(Cl)cc3cn2)C1` (racemic) [Ex-1.22, Rac-N-(7-chloro-6-(1-(4-hydroxy-3-methyltetrahydrofuran-3-yl)piperidin-4-yl)isoquinolin-3-yl)-3-isopropylcyclobutane-1-carboxamide], the IC50 is 0.977 nM.
In the case of `COC1CC(C(=O)Nc2cc3cc(C4CCN(C5COC5)CC4)c(Cl)cc3cn2)C1` (racemic) [Ex-7.9, Rac-N-(7-chloro-6-(1-(oxetan-3-yl)piperidin-4-yl)isoquinolin-3-yl)-3-methoxycyclobutane-1-carboxamide], the IC50 is 2.63 nM.
The result for `Cn1ncc(C2CC2C(=O)Nc2cc3cc(C4CCN(C5(C)COCC5O)CC4)c(Cl)cc3cn2)n1` (racemic) [Ex-20.2, (1R,2R and 1S,2S)-N-(7-chloro-6-(1-(4-hydroxy-3-methyltetrahydrofuran-3-yl)piperidin-4-yl)isoquinolin-3-yl)-2-(2-methyl-2H-1,2,3-triazol-4-yl)cyclopropane-1-carboxamide] reads 0.0813 nM; that for `COC1CC(C(=O)Nc2cc3cc(C4(C#N)CC45CC5)ccc3cn2)C1` (single isomer, unassigned) [Ex-1.2, (1R,3R or 1S,3S)-N-(6-((R or S)-1-cyanospiro[2.2]pentan-1-yl)isoquinolin-3-yl)-3-methoxycyclobutane-1-carboxamide], 0.661 nM; that for `COC1CC(C(=O)Nc2cc3cc(C4(C#N)CC45CC5)ccc3cn2)C1` (single isomer, unassigned) [Ex-1.3, (1R,3R or 1S,3S)-N-(6-((R or S)-1-cyanospiro[2.2]pentan-1-yl)isoquinolin-3-yl)-3-methoxycyclobutane-1-carboxamide], 0.631 nM.
Consider `COC1CC(C(=O)Nc2cc3cc(C4(C#N)CC45CC5)ccc3cn2)C1` (single isomer, unassigned) [Ex-1.4, (1R,3R or 1S,3S)-N-(6-((R or S)-1-cyanospiro[2.2]pentan-1-yl)isoquinolin-3-yl)-3-methoxycyclobutane-1-carboxamide], for which the IC50 is 3.63 nM.
The value for `O=C(Nc1cc2cc(C3CCN(C4COC4)CC3)c(Cl)cc2cn1)C1CC1(F)F` (single isomer, unassigned) [Ex-1.5, (R or S)-N-(7-chloro-6-(1-(oxetan-3-yl)piperidin-4-yl)isoquinolin-3-yl)-2,2-difluorocyclopropane-1-carboxamide] was 5.89 nM.
On to `O=C(Nc1cc2cc(C3CCN(C4COC4)CC3)c(Cl)cc2cn1)[C@H]1C[C@@H]1F` (single isomer, unassigned) [Ex-1.7, (1R,3S or 1S,3R)-N-(7-chloro-6-(1-(oxetan-3-yl)piperidin-4-yl)isoquinolin-3-yl)-2-fluorocyclopropane-1-carboxamide], for which the IC50 is 1.12 nM.
Turning to `O=C(Nc1cc2cc(C3CCN(C4COC4)CC3)c(Cl)cc2cn1)C1CC12CCC(F)(F)CC2` (single isomer, unassigned) [Ex-1.8, (R or S)-N-(7-chloro-6-(1-(oxetan-3-yl)piperidin-4-yl)isoquinolin-3-yl)-6,6-difluorospiro[2.5]octane-1-carboxamide], the IC50 was 21.4 nM.
`N#CC1(c2ccc3cnc(NC(=O)C4CCC4)cc3c2)CC12CC2` (single isomer, unassigned) [Ex-1.15, (R or S)-N-(6-(1-cyanospiro[2.2]pentan-1-yl)isoquinolin-3-yl)cyclobutanecarboxamide]: the IC50 was 3.24 nM.
With `CC1(N2CCC(c3cc4cc(NC(=O)[C@@H]5CCCCO5)ncc4cc3Cl)CC2)COCC1O` (single isomer, unassigned) [Ex-1.17, (S)-N-(7-chloro-6-(1-((3R,4R or 3S,4S)-4-hydroxy-3-methyltetrahydrofuran-3-yl)piperidin-4-yl)isoquinolin-3-yl)tetrahydro-2H-pyran-2-carboxamide], the IC50 is 0.178 nM.
With `CC1(N2CCC(c3cc4cc(NC(=O)C5CC(F)(F)C5)ncc4cc3Cl)CC2)COCC1O` (single isomer, unassigned) [Ex-1.18, N-(7-chloro-6-(1-((3R,4R or 3S,4S)-4-hydroxy-3-methyltetrahydrofuran-3-yl)piperidin-4-yl)isoquinolin-3-yl)-3,3-difluorocyclobutane-1-carboxamide], the IC50 was 1.35 nM.
The value for `CN1CCC(C(=O)Nc2cc3cc(C4CCN(C5(C)COCC5O)CC4)c(Cl)cc3cn2)CC1` (single isomer, unassigned) [Ex-1.19, N-(7-chloro-6-(1-((3R,4R or 3S,4S)-4-hydroxy-3-methyltetrahydrofuran-3-yl)piperidin-4-yl)isoquinolin-3-yl)-1-methylpiperidine-4-carboxamide] was 0.38 nM; that for `CC1(N2CCC(c3cc4cc(NC(=O)C5C6CCCC65)ncc4cc3Cl)CC2)COCC1O` (single isomer, unassigned) [Ex-1.20, N-(7-chloro-6-(1-((3R,4R or 3S,4S)-4-hydroxy-3-methyltetrahydrofuran-3-yl)piperidin-4-yl)isoquinolin-3-yl)bicyclo[3.1.0]hexane-6-carboxamide] was 0.182 nM; that for `CC(C)(O)C1CC1C(=O)Nc1cc2cc(C3CCN(C4(C)COCC4O)CC3)c(Cl)cc2cn1` (single isomer, unassigned) [Ex-1.21, (1R,2R or 1S,2S)-N-(7-chloro-6-(1-((3R,4R or 3S,4S)-4-hydroxy-3-methyltetrahydrofuran-3-yl)piperidin-4-yl)isoquinolin-3-yl)-2-(2-hydroxypropan-2-yl)cyclopropane-1-carboxamide] was 0.0912 nM.
For the compound `Cn1cc(C2CC2C(=O)Nc2cc3cc(C4(C#N)CC45CC5)ccc3cn2)cn1` (single isomer, unassigned) [Ex-1.23, (1R,2R or 1S,2S)-N-(6-((R or S)-1-cyanospiro[2.2]pentan-1-yl)isoquinolin-3-yl)-2-(1-methyl-1H-pyrazol-4-yl)cyclopropane-1-carboxamide], the IC50 is 1.58 nM.
Take `Cn1cc(C2CC2C(=O)Nc2cc3cc(C4(C#N)CC45CC5)ccc3cn2)cn1` (single isomer, unassigned) [Ex-1.24, (1R,2R or 1S,2S)-N-(6-((R or S)-1-cyanospiro[2.2]pentan-1-yl)isoquinolin-3-yl)-2-(1-methyl-1H-pyrazol-4-yl)cyclopropane-1-carboxamide]: the IC50 was 0.0813 nM.
The value for `CCC1C(C(=O)Nc2cc3cc(C4(C#N)CC45CC5)ccc3cn2)C1c1cnn(C)c1` (single isomer, unassigned) [Ex-1.25, (1R,3R or 1S,3S)-N-(6-((R or S)-1-cyanospiro[2.2]pentan-1-yl)isoquinolin-3-yl)-2-ethyl-3-(1-methyl-1H-pyrazol-4-yl)cyclopropane-1-carboxamide] was 0.661 nM; that for `CC(C)(O)C1CC(C(=O)Nc2cc3cc(C4(C#N)CC45CC5)ccc3cn2)C1` (single isomer, unassigned) [Ex-1.26, (1R,3R or 1S,3S)-N-(6-((R or S)-1-cyanospiro[2.2]pentan-1-yl)isoquinolin-3-yl)-3-(2-hydroxypropan-2-yl)cyclobutane-1-carboxamide] was 3.39 nM; that for `CC1(C)CC(C(=O)Nc2cc3cc(C4(C#N)CC45CC5)ccc3cn2)CC(C)(C)O1` (single isomer, unassigned) [Ex-1.27, N-(6-((R or S)-1-cyanospiro[2.2]pentan-1-yl)isoquinolin-3-yl)-2,2,6,6-tetramethyltetrahydro-2H-pyran-4-carboxamide] was 9.77 nM.
The value for `CC(C)OC1CCC(C(=O)Nc2cc3cc(C4(C#N)CC45CC5)ccc3cn2)OC1` (single isomer, unassigned) [Ex-1.28, N-(6-((R or S)-1-cyanospiro[2.2]pentan-1-yl)isoquinolin-3-yl)-5R or 5S-isopropoxytetrahydro-2H-pyran-2R-carboxamide] was 24 nM; that for `N#CC1(c2ccc3cnc(NC(=O)[C@@H]4C[C@@H](O)[C@H](F)C4)cc3c2)CC12CC2` (single isomer, unassigned) [Ex-1.29, (1R,3R,4R)-N-(6-((R or S)-1-cyanospiro[2.2]pentan-1-yl)isoquinolin-3-yl)-3-fluoro-4-hydroxycyclopentane-1-carboxamide] was 20.4 nM.
As to `N#CC1(c2ccc3cnc(NC(=O)C4CCN(C(=O)C(F)(F)F)CC4)cc3c2)CC12CC2` (single isomer, unassigned) [Ex-1.30, N-(6-((R or S)-1-cyanospiro[2.2]pentan-1-yl)isoquinolin-3-yl)-1-(2,2,2-trifluoroacetyl)piperidine-4-carboxamide], the IC50 is 14.1 nM.
